Source: PMC12686126, “LL‐37 Inhibits TMPRSS2‐Mediated S2' Site Cleavage and SARS‐CoV‐2 Infection but Not Omicron Variants” (Cell Proliferation, 2025)
Entries after “also recorded” stand apart in the source; their conditions may differ. Structures can show the parent of a compound that is named as a salt.

Tests used:
[1] = tested on: SARS‐CoV‐2 spike pseudovirus; format: cell-based
[2] = tested on: TMPRSS2; experiment: TMPRSS2 activity measurement; format: cell-based, human; settings: 293T‐T2 cells, 2 h at 37°C; Boc‐Phe‐Ser‐Arg‐MCA 100 μM, fluorescence 360/460 nm; LL‐37 0–20 μg/mL, CM and E64d 0–100 μM
Method: 293T‐T2 cells (5 × 10^4/well) in a black 96‐well flat‐bottom plate were treated for 2 h at 37°C with LL‐37 (0, 1, 5, 10, 20 μg/mL), camostat mesylate (0, 0.1, 0.5, 1, 5, 10, 50, 100 μM, MedChemExpress), or E64d (0, 0.1, 0.5, 1, 5, 10, 50, 100 μM, MedChemExpress). The peptide and inhibitors were prepared with DMEM free of FBS. To measure the proteolytic activity of TMPRSS2, the medium was replaced with 100 μL of DMEM free of FBS and phenol red and containing 100 μM of Boc‐Phe‐Ser‐Arg‐MCA (Peptide, Japan). The fluorescence intensity was measured after 2 h of incubation at 37°C using a microplate reader (Biotek, USA). The excitation/emission wavelengths were 360/460 nm. The values were expressed as a percent of fluorescence intensity relative to the control. Camostat mesylate and E64d were used as the positive and negative controls respectively. All procedures were carried out in the dark.

[3] = tested on: SARS‐CoV‐2; settings: cited from earlier work
[4] = tested on: SARS‐CoV‐2 spike; format: cell-based
[5] = tested on: Delta spike; format: cell-based, SARS‐CoV‐2 Delta
[6] = tested on: BA.1 spike; format: cell-based, SARS‐CoV‐2 Omicron BA.1
[7] = tested on: BA.4/5 spike; format: cell-based, SARS‐CoV‐2 Omicron BA.4/5
[8] = tested on: Beta spike pseudovirus; format: cell-based, SARS‐CoV‐2 Beta
[9] = tested on: Delta spike pseudovirus; format: cell-based, SARS‐CoV‐2 Delta
[10] = tested on: BA.1 spike pseudovirus; format: cell-based, SARS‐CoV‐2 Omicron BA.1
[11] = tested on: BA.2 spike pseudovirus; format: cell-based, SARS‐CoV‐2 Omicron BA.2
[12] = tested on: BA.2.12.1 spike pseudovirus; format: cell-based, SARS‐CoV‐2 Omicron BA.2.12.1
[13] = tested on: BA.3 spike pseudovirus; format: cell-based, SARS‐CoV‐2 Omicron BA.3
[14] = tested on: BA.4/5 spike pseudovirus; format: cell-based, SARS‐CoV‐2 Omicron BA.4/5
[15] = tested on: SARS‐CoV‐2 spike pseudovirus; format: cell-based; remark: listed apart in the source
[16] = tested on: SARS‐CoV‐2 spike pseudovirus; format: cell-based; remark: listed apart in the source
[17] = tested on: SARS‐CoV‐2 spike pseudovirus (S1 and S2 subunits) attached to 293T‐A2 cells; format: cell-based
[18] = tested on: BA.1 spike pseudovirus (S1 and S2 subunits) attached to 293T‐A2 cells; format: cell-based, SARS‐CoV‐2 Omicron BA.1
[19] = tested on: BA.4/5 spike pseudovirus (S1 and S2 subunits) attached to 293T‐A2 cells; format: cell-based, SARS‐CoV‐2 Omicron BA.4/5
[20] = tested on: SARS‐CoV‐2 spike S2 subunit; format: binding; settings: pH 9.6
[21] = tested on: S2 subunit of BA.1 spike; format: binding, SARS‐CoV‐2 Omicron BA.1
[22] = tested on: SARS‐CoV‐2 spike S1 and S2 subunits; format: binding
[23] = tested on: 293T‐A2 and 293T‐Mock cell membranes; format: cell-based; settings: 293T-A2 vs 293T-Mock cells treated 2 h with LL-37; western blot (Figure S4A)
[24] = tested on: SARS‐CoV‐2 spike S2 subunit; format: cell-based
[25] = tested on: Delta spike S2 subunit; format: cell-based, SARS‐CoV‐2 Delta
[26] = tested on: BA.1 spike S2 subunit; format: cell-based, SARS‐CoV‐2 Omicron BA.1
[27] = tested on: BA.4/5 spike S2 subunit; format: cell-based, SARS‐CoV‐2 Omicron BA.4/5
[28] = tested on: SARS‐CoV‐2 spike; set-up: species or system mouse (BALB/c); settings: mouse, in vivo
[29] = tested on: SARS‐CoV‐2 spike; set-up: species or system mouse (BALB/c); settings: mouse, in vivo; remark: listed apart in the source
[30] = tested on: BA.4/5 spike; set-up: species or system mouse (BALB/c); settings: mouse, in vivo
[31] = tested on: BA.4/5 spike; set-up: species or system mouse (BALB/c); settings: mouse, in vivo; remark: listed apart in the source
[32] = no reference given; cited from earlier work
[33] = tested on: receptor binding domain (RBD) of spike S1 and the ACE2 receptor; settings: by binding to the RBD and/or ACE2; ref [36], [37], [41], [42]; cited from earlier work
[34] = ref [44]; cited from earlier work
[35] = tested on: TLR3, TLR7, or TLR9; settings: binds DNA/RNA, elevates type I interferon response; ref [63], [64]; cited from earlier work
[36] = tested on: FPRL‐1 and CXCR2; settings: receptors involved in chemotaxis of monocytes, neutrophils and lymphocytes; ref [65], [66]; cited from earlier work
[37] = tested on: FPR‐2 receptor; settings: leading to immunosuppression; ref [67], [68]; cited from earlier work
[38] = tested on: NF‐kB p50 and p65 subunits; settings: leading to immunosuppression; ref [67], [68]; cited from earlier work

CN(C)C(=O)COC(=O)Cc1ccc(OC(=O)c2ccc(NC(=N)N)cc2)cc1 [CM, camostat mesylate, reference compound]
reduction of pseudovirus‐induced RLU [1]: about 60% | suppression of cellular TMPRSS2 activity [2]: suppressed cellular TMPRSS2 activity at sub‐micromolar concentrations | antiviral activity against SARS‐CoV‐2 [3]: shows antiviral activity against SARS‐CoV‐2

O=C(CC1NCCCC1O)Cn1cnc2cc(Br)c(Cl)cc2c1=O (stereo not shown) [halofuginone]
inhibition of SARS‐CoV‐2 entry and replication [3]: high inhibition

COC(=O)C[C@](O)(CCCC(C)(C)O)C(=O)O[C@@H]1C(OC)=C[C@]23CCCN2CCc2cc4c(cc2[C@H]13)OCO4 [homoharringtonine]
inhibition of SARS‐CoV‐2 entry and replication [3]: high inhibition

CNC(=O)[C@@H](NC(=O)[C@H](CC(C)C)[C@H](O)C(=O)NO)C(C)(C)C [marimastat, reference compound]
reduction of pseudovirus‐induced RLU [1]: ~25% | inhibition of SARS‐CoV‐2‐induced membrane fusion [3]: inhibitory activity against SARS‐CoV‐2‐induced membrane fusion at sub‐micromolar levels

KRKSFDGFKELILKGRQEIKFKRDIFLVNLRETRPSV [KR‐37, reference compound]
inhibition of cell–cell fusion [4]: showed no inhibition | inhibition of cell–cell fusion [5]: showed no inhibition | inhibition of cell–cell fusion [6]: showed no inhibition | inhibition of cell–cell fusion [7]: showed no inhibition

LLGDFFRKSKEKIGKEFKRIVQRIKDFLRNLVPRTES [LL‐37]
inhibition of pseudovirus entry [8]: significantly inhibit | inhibition of pseudovirus entry [9]: significantly inhibit | inhibition of pseudovirus entry [10]: inhibitory effects were compromised | inhibition of pseudovirus entry [11]: inhibitory effects were compromised | inhibition of pseudovirus entry [12]: inhibitory effects were compromised | inhibition of pseudovirus entry [13]: inhibitory effects were compromised | inhibition of pseudovirus entry [14]: inhibitory effects were compromised | prevention of pseudovirus entry [15]: prevented; also recorded: not if added 2 h post infection (hpi) and 4 hpi | reduction of RLU caused by LL‐37 with endosomal inhibitor [16]: no significant difference | plasma membrane‐attached spike (S1 and S2 subunits) [17]: equal quantity | plasma membrane‐attached spike (S1 and S2 subunits) [18]: equal quantity | plasma membrane‐attached spike (S1 and S2 subunits) [19]: equal quantity | inhibition of cell–cell fusion [4]: inhibited | inhibition of fusion, pretreatment vs treatment during infection ([4]; 10 μg/mL): stronger inhibition of fusion than treatment during infection | inhibition of cell–cell fusion [5]: inhibited | inhibition of fusion, pretreatment vs treatment during infection ([5]; 10 μg/mL): stronger inhibition of fusion than treatment during infection | inhibition of cell–cell fusion [6]: compromised inhibition | inhibition of cell–cell fusion [7]: compromised inhibition | binding of S2 subunit to immobilised LL‐37 [20]: much stronger binding | binding of S2 subunit to immobilised LL‐37 [21]: much lower binding | spike subunit bound to plasma membrane facilitated by LL‐37 [22]: S2 subunit rather than the S1 subunit | spike subunits bridged by LL‐37 to plasma membranes [22]: bridged more S2 subunits than S1 subunits | LL‐37 attachment to cell membrane [23]: could attach to the cell membrane independent of the ACE2 expression | generation of S2' fragment [24]: remarkably reduced | generation of S2' fragment [25]: consistent result with that of SARS‐CoV‐2 | generation of S2' fragment [26]: did not significantly reduce | generation of S2' fragment [27]: did not significantly reduce | suppression of cellular TMPRSS2 activity [2]: not LL‐37 or E64d suppressed | IgM responses and titers [28]: elevated IgM responses and titers | IgG responses [29]: enhanced | IgG responses and titers [29]: no significant difference | IgM responses and titers [30]: no difference and low levels to background | IgG responses and titers [31]: no difference and low levels to background | overall positive net charge [32]: +6 | block of RBD–ACE2 interaction [33]: block the interaction | attachment to lipid bilayer [34]: can attach to lipid bilayer via the C‐terminal VPRTES tail | effect on TLR signalling [35]: augment signalling via TLR3, TLR7, or TLR9 | receptor binding [36]: directly bind with receptors such as FPRL‐1 and CXCR2 | receptor interaction [37]: interact with the FPR‐2 receptor | prevention of NF‐kB translocation [38]: prevent the translocation of NF‐kB p50 and p65 subunits

α1‐antitrypsin
inhibition of SARS‐CoV‐2 entry and replication [3]: high inhibition
